Measured values reported in PubChem BioAssay (NCI).
Values joined by “and” are separate entries in the source; they are usually repeats but may differ in a detail not shown here. Identical values can stand only once.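 Dose response: 5 concentrations. Exposure: 48 h. Format: 96-well plates. Endpoint: linear interpolation; highest concentration if not reached. The concentration for 50% growth inhibition is given as GI50. TGI denotes the concentration required for complete inhibition of growth.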

Tests used:
Experiment in all cases: DTP human tumour cell line panel, 48 h
HOP-62 NSCLC = tested on: HOP-62 NSCLC
HL-60(TB) leukemia = tested on: HL-60(TB) leukemia
PC-3 prostate = tested on: PC-3 prostate
786-0 renal = tested on: 786-0 renal
KM12 colon = tested on: KM12 colon
SK-MEL-5 melanoma = tested on: SK-MEL-5 melanoma
DU-145 prostate = tested on: DU-145 prostate
MDA-MB-435 = tested on: MDA-MB-435
NCI-H460 lung = tested on: NCI-H460 lung
U251 CNS = tested on: U251 CNS

SMILES	TGI (HOP-62 NSCLC)	TGI (HL-60(TB) leukemia)	TGI (PC-3 prostate)	TGI (786-0 renal)	TGI (KM12 colon)	TGI (SK-MEL-5 melanoma)	TGI (DU-145 prostate)	TGI (MDA-MB-435)	TGI (NCI-H460 lung)	TGI (U251 CNS)	GI50 (HOP-62 NSCLC)	GI50 (HL-60(TB) leukemia)	GI50 (PC-3 prostate)	GI50 (786-0 renal)	GI50 (KM12 colon)	GI50 (SK-MEL-5 melanoma)	GI50 (DU-145 prostate)	GI50 (MDA-MB-435)	GI50 (NCI-H460 lung)	GI50 (U251 CNS)
Cc1ccc([Se](=C(C(=O)c2ccccc2)C(=O)c2ccccc2)c2ccc(C)cc2)cc1	> 100 µM	54.2 µM	82.5 µM	> 100 µM	44.1 µM	37.2 µM	> 100 µM	55 µM	> 100 µM	68.2 µM										
O=C(Cn1c(C(=O)c2ccc(Cl)cc2)nc(-c2ccc(Cl)cc2)c1-c1ccc(Cl)cc1)c1ccccc1	> 100 µM	> 100 µM	> 100 µM	> 100 µM	> 100 µM	> 100 µM	> 100 µM	> 100 µM	> 100 µM	> 100 µM	> 100 µM	> 100000 nM	> 100000 nM	> 100000 nM	> 100000 nM	> 100000 nM	> 100 µM	> 100000 nM	> 100000 nM	> 100000 nM
N#CC(C#N)=NNc1ccc2cn[nH]c2c1	> 100 µM	45.3 µM	> 100 µM	> 100 µM	> 100 µM	> 100 µM	82.9 µM	> 100 µM	> 100 µM	> 100 µM										
COc1cc(-c2cc3ncccc3c3nc(OCCN(C)C)c4cccnc4c23)cc(OC)c1OC	3 µM	4.73 µM	> 100 µM	1.16 µM	> 100 µM	1.96 µM	> 100 µM	3.75 µM	1.88 µM	1.66 µM	0.75 µM	1250 nM	731 nM	318 nM	1140 nM	468 nM	0.5 µM	671 nM	349 nM	391 nM
O=C([O][Hg][c]1ccccc1)c1ccccc1	4.84 µM	1.86 µM	14.7 µM	3.5 µM	24.1 µM	3.06 µM	4.13 µM	3.1 µM	9.27 µM	2.8 µM	2.16 µM	325 nM	3290 nM	1810 nM	11600 nM	1530 nM	1.95 µM	1550 nM	2600 nM	1380 nM
N#CC1C[C@@H]2CC3(CCC2CN1C(=O)c1ccccc1)OCCO3 (some centres not stated)	> 100 µM	> 100 µM	> 100 µM	> 100 µM	> 100 µM	> 100 µM	> 100 µM	> 100 µM	> 100 µM	> 100 µM			> 100000 nM				> 100 µM	> 100000 nM		
Fc1cc(F)c(F)c(S)c1F	> 100 µM	> 100 µM	42.2 µM	> 100 µM	> 100 µM	> 100 µM	> 100 µM	> 100 µM	> 100 µM	> 100 µM										
Cc1ccccc1C1=C(c2cn(C)c3ccccc23)C(=O)NC1=O	> 25 µM	> 25 µM	> 25 µM	> 25 µM	> 25 µM	> 25 µM	> 25 µM	> 25 µM	> 25 µM	> 25 µM	> 24.1 µM	10800 nM	9740 nM	> 25000 nM	10800 nM	16000 nM	23.7 µM	> 21500 nM	14300 nM	13200 nM
CCc1ccccc1NC(=O)C(C#N)C1=C(Cl)C(=O)c2ccccc2C1=O (configuration not stated)	43.4 µM	83.3 µM	33 µM	31.4 µM	28.4 µM	29.6 µM	32.2 µM	63 µM	40.6 µM	29.8 µM										
Cc1ccc(-c2nc3nc(-c4ccc(F)cc4)nc(N4CCNCC4)c3o2)cc1	37.9 µM	4.3 µM	4.69 µM	3.34 µM	3.61 µM	29 µM	6.45 µM	3.24 µM	3.77 µM	4.03 µM	16.4 µM	1910 nM	1910 nM	1760 nM	1880 nM	15400 nM	2.6 µM	1780 nM	1940 nM	1950 nM
Cc1ccc([P+](Cc2ccccc2)(c2ccccc2)c2ccccc2)cc1	> 100 µM	3.69 µM	> 100 µM	> 100 µM	12 µM	2.3 µM	> 100 µM	3.42 µM	10.5 µM	24.4 µM	4.25 µM	1140 nM	1530 nM	4110 nM	1690 nM	904 nM	3.62 µM	610 nM	2330 nM	2140 nM
COc1ccc(-c2coc3cc(O)ccc3c2=O)cc1	> 100 µM	> 100 µM	> 100 µM	> 100 µM	> 100 µM	> 100 µM	> 100 µM	> 100 µM	> 100 µM	> 100 µM										
CC1=C/C=C/C(=O)O[C@@H]([C@H](C)[C@H](O)[C@@H](C)NC(=O)C(C)C)[C@H](C)/C=C/C(C)=C/[C@H]2C=CCC[C@@]2(C)\C=C\1	12.5 µM	9.12 µM and 13.7 µM	13.2 µM	8.06 µM	> 42.3 µM	0.81 µM and 0.812 µM	8.98 µM	6.43 µM	26.4 µM	7.18 µM	2.13 µM and 4.68 µM	744 nM and 747 nM	654 nM and 223 nM	506 nM and 147 nM	518 nM and 343 nM	63.4 nM and 20.2 nM	4.64 µM and 0.652 µM	33.5 nM and 16.5 nM	526 nM and 287 nM	75.9 nM and 70.2 nM
N#CC(C#N)=CNCCN1CCN(C=C(C#N)C#N)CC1	> 100 µM	> 100 µM	> 100 µM	> 100 µM	> 100 µM	> 100 µM	> 100 µM	> 100 µM	> 100 µM	> 100 µM										
C[C@H](c1ccc(F)cc1CCCC(=O)O)N(c1cc(F)ccc1F)S(=O)(=O)c1ccc(Cl)cc1	> 70.2 µM	> 95.1 µM	> 100 µM	> 100 µM	> 100 µM	38 µM	> 100 µM	51.3 µM	52.8 µM	> 100 µM	24.4 µM	30700 nM	26500 nM	31200 nM	26500 nM	17500 nM	34 µM	20600 nM	20600 nM	31900 nM
COC(=O)C12CCC(C)(C)CC1C1=CCC3C4(C)CC(O)C(O)C(C)(C(=O)OC)C4CCC3(C)C1(CO)CC2 (configuration not stated)	32.2 µM	> 100 µM	22 µM	23.3 µM	22.3 µM	41.3 µM	29.1 µM	32.4 µM	31.5 µM	39.8 µM										
ClCCCSSCCCCl	> 100 µM	16 µM	85.5 µM	> 100 µM	> 95.1 µM	> 100 µM	> 100 µM	> 60.5 µM	> 100 µM	> 100 µM										
C[C@@H](N)COc1ccc(-c2cnc3ccc(N[C@H](C)c4cccc(F)c4)nn23)cc1	11.9 µM	3.74 µM	9.39 µM	2.74 µM	1.5 µM	3.03 µM	11.4 µM	3.07 µM	3.88 µM	4.18 µM	2.29 µM	1810 nM	1620 nM	1330 nM		1630 nM	3.01 µM	1470 nM	1750 nM	1590 nM
CS(=O)(=O)N1CCC(n2c(=O)c(Oc3ccc(F)cc3F)cc3cnc(NC4CCOCC4)nc32)CC1	> 25 µM	> 25 µM	> 25 µM	> 25 µM	> 25 µM	> 25 µM	> 25 µM	> 25 µM	> 25 µM	> 25 µM	> 25 µM	> 25000 nM	> 25000 nM	> 25000 nM	> 25000 nM	> 25000 nM	> 25 µM	> 25000 nM	> 25000 nM	> 25000 nM
COc1cc2c(NCCCCCO)ncnc2c(OC)c1OC	> 100 µM	> 100 µM	> 100 µM	> 100 µM	> 100 µM	> 100 µM	> 100 µM	> 100 µM	> 100 µM	> 100 µM										
COc1cc(OC)cc(Oc2cnc3cc(N)cc(N)c3n2)c1	36.6 µM	28 µM	56 µM	29 µM	24.1 µM	29.3 µM	38.5 µM	6.76 µM	41.2 µM	28.8 µM	16.9 µM	5680 nM	24700 nM	15200 nM	10300 nM	15300 nM	17.6 µM	2870 nM	19400 nM	15500 nM
CN1CCN(C(=O)[C@@]2(C)CC[C@]3(C)CC[C@]4(C)C(=CC[C@@H]5[C@@]6(C)CCC(=O)NC(C)(C)[C@@H]6CC[C@]54C)[C@@H]3C2)CC1	3.13 µM	3.87 µM	2.42 µM	2.98 µM	3.13 µM	3.06 µM	12.1 µM	3.3 µM	3.3 µM	2.82 µM	1.56 µM	1870 nM	813 nM	1580 nM	1560 nM	1640 nM	3.44 µM	1620 nM	1690 nM	1380 nM
